Biological target: T1, SMARCA2 (Homo sapiens, UniProt P51531)
T1 construct: endogenous in cells; host or cells: HT1080 (CRISPR HiBiT knock-in clone, generated in house)
Assay: SMARCA2 HiBiT degradation assay (cellular)
Assay type: cell-based
Conditions: table head names A549; for DC50: 6 h incubation, HiBiT-tagged SMARCA2, luminescence read-out, read-out: HiBit A549 SMARCA2 IP (nM) 6 h; for Emax: A549, 6 h incubation, Emax = amount of residual protein remaining in the cell following compound treatment

T1 sequence (P51531 whole entry): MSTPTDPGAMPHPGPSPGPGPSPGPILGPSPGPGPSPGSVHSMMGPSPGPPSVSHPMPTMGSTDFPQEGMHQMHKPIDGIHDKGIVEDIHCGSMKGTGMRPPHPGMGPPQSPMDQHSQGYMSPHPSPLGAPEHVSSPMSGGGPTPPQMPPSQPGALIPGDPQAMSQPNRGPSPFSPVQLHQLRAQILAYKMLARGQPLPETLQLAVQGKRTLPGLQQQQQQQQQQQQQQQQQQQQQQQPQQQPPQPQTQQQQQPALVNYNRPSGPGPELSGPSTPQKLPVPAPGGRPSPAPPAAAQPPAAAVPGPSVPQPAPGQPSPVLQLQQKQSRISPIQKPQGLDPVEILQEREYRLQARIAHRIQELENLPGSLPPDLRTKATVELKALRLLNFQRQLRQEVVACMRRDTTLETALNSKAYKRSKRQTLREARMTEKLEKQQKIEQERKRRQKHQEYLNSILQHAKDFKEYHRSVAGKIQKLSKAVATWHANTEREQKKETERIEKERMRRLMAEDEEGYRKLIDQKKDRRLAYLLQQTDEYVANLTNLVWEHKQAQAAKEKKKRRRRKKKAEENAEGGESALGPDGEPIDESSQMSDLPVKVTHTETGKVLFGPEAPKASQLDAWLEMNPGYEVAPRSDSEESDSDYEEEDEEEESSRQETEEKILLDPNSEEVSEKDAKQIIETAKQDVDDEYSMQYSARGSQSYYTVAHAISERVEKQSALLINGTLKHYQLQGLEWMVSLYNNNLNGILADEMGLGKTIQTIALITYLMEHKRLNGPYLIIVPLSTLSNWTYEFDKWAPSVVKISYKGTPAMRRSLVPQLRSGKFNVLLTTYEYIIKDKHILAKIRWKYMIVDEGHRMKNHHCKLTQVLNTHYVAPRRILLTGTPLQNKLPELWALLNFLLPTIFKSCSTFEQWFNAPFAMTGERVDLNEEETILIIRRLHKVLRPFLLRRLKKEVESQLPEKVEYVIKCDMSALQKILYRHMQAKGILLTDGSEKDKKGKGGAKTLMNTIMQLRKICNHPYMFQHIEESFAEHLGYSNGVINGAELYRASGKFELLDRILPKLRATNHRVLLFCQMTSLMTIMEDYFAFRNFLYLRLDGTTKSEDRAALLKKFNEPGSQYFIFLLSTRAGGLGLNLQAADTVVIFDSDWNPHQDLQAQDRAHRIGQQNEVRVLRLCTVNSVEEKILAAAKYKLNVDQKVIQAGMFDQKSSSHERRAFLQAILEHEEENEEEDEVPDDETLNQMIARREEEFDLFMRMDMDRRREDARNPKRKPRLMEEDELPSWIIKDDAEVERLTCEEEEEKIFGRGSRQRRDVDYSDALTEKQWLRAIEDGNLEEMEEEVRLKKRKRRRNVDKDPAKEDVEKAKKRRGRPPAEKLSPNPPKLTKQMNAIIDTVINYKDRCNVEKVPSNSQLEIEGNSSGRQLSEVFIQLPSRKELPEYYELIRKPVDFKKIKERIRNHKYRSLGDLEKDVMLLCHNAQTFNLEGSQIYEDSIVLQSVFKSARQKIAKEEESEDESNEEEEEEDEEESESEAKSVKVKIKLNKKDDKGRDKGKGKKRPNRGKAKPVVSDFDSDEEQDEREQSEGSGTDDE

Row | SMILES | DC50 [nM] | Emax [%]
1 | Nc1nnc(-c2ccccc2O)cc1N1CC2CCC(C1)N2c1cccc(CN2CCN(C(=O)CN3CCC(c4ccc(OC5CCC(=O)NC5=O)cc4)CC3)CC2)c1 (racemic) [Example 148, rac-3-[4-[1-[2-[4-[[3-[3-[3-Amino-6-(2-hydroxyphenyl)pyridazin-4-yl]-3,8-diazabicyclo[3.2.1]octan-8-yl]phenyl]methyl]piperazin-1-yl]-2-oxo-ethyl]-4-piperidyl]phenoxy]piperidine-2,6-dione] | 25 | 33
2 | Nc1nnc(-c2ccccc2O)cc1N1CC2CCC(C1)N2c1cccc(CN2CCC(C(=O)N3CCC(c4ccc(OC5CCC(=O)NC5=O)cc4)CC3)CC2)c1 (racemic) [Example 92, rac-3-[4-[1-[1-[[3-[3-[3-amino-6-(2-hydroxyphenyl)pyridazin-4-yl]-3,8-diazabicyclo[3.2.1]octan-8-yl]phenyl]methyl]piperidine-4-carbonyl]-4-piperidyl]phenoxy]piperidine-2,6-dione] | 17 | 41
3 | Nc1nnc(-c2ccccc2O)cc1N1CCC(CNC(=O)C2CCN(c3cccc4c3C(=O)N(C3CCC(=O)NC3=O)C4=O)CC2)(c2ccccc2)CC1 (centres unmarked) [Example 71, N-[[1-[3-amino-6-(2-hydroxyphenyl)pyridazin-4-yl]-4-phenyl-4-piperidyl]methyl]-1-[2-(2,6-dioxo-3-piperidyl)-1,3-dioxo-isoindolin-4-yl]piperidine-4-carboxamide] | 326 | 46
4 | Nc1nnc(-c2ccccc2O)cc1N1CC2CCC(C1)N2c1cccc(CN2CCC(C(=O)N3CCN(c4ccc(OC5CCC(=O)NC5=O)cc4)CC3)CC2)c1 (racemic) [Example 94, rac-3-[4-[4-[1-[[3-[3-[3-amino-6-(2-hydroxyphenyl)pyridazin-4-yl]-3,8-diazabicyclo[3.2.1]octan-8-yl]phenyl]methyl]piperidine-4-carbonyl]piperazin-1-yl]phenoxy]piperidine-2,6-dione] | 18 | 48
5 | Nc1nnc(-c2ccccc2O)cc1O[C@@H]1CCCN(c2ccc(N3CCN(C(=O)CCCCCCCCn4cc(CNc5cccc6c5C(=O)N(C5CCC(=O)NC5=O)C6=O)nn4)CC3)cc2)C1 (mixture of isomers) [Example 62, 2-(2,6-dioxo-3-piperidyl)-4-[[1-[9-oxo-9-[4-[4-[rac-(3R)-3-[3-amino-6-(2-hydroxyphenyl)pyridazin-4-yl]oxy-1-piperidyl]phenyl]piperazin-1-yl]nonyl]triazol-4-yl]methylamino]isoindoline-1,3-dione] | 124 | 33
6 | Nc1nnc(-c2ccccc2O)cc1OC1CCCN(c2ccc(OCCN3CCN(C(=O)CCCCCCCCCCCCC(=O)N4CCN(c5ccc(NC6CCC(=O)NC6=O)cc5)CC4)CC3)cc2)C1 (centres unmarked) [Example 25, 3-[4-[4-[14-[4-[2-[4-[3-[3-amino-6-(2-hydroxyphenyl)pyridazin-4-yl]oxy-1-piperidyl]phenoxy]ethyl]piperazin-1-yl]-14-oxo-tetradecanoyl]piperazin-1-yl]anilino]piperidine-2,6-dione] | 614 | 59
7 | CN(C(=O)C1CCN(Cc2cccc(N3C4CCC3CN(c3cc(-c5ccccc5O)nnc3N)C4)c2)CC1)C1CN(c2ccc3c(c2)C(=O)N(C2CCC(=O)NC2=O)C3=O)C1 (racemic) [Example 170, rac-1-[[3-[3-[3-amino-6-(2-hydroxyphenyl)pyridazin-4-yl]-3,8-diazabicyclo[3.2.1]octan-8-yl]phenyl]methyl]-N-[1-[2-(2,6-dioxo-3-piperidyl)-1,3-dioxo-isoindolin-5-yl]azetidin-3-yl]-N-methyl-piperidine-4-carboxamide] | 18 | 31
8 | Nc1nnc(-c2ccccc2O)cc1N1CC2CCC(C1)N2c1cccc(OCCN2CCN(C(=O)CC3CCN(c4cccc5c4C(=O)N(C4CCC(=O)NC4=O)C5=O)CC3)CC2)c1 (racemic) [Example 15, rac-4-[4-[2-[4-[2-[3-[3-[3-amino-6-(2-hydroxyphenyl)pyridazin-4-yl]-3,8-diazabicyclo[3.2.1]octan-8-yl]phenoxy]ethyl]piperazin-1-yl]-2-oxo-ethyl]-1-piperidyl]-2-(2,6-dioxo-3-piperidyl)isoindoline-1,3-dione] | 35 | 52
9 | Nc1nnc(-c2ccccc2O)cc1OC1CCCN(c2ccc(N3CCN(CCCCCCCCCn4cc(COc5cccc6c5C(=O)N(C5CCC(=O)NC5=O)C6=O)nn4)CC3)cc2)C1 (centres unmarked) [Example 65, 4-[[1-[9-[4-[4-[3-[3-amino-6-(2-hydroxyphenyl)pyridazin-4-yl]oxy-1-piperidyl]phenyl]piperazin-1-yl]nonyl]triazol-4-yl]methoxy]-2-(2,6-dioxo-3-piperidyl)isoindoline-1,3-dione] | 115 | 31

Next, values leading:

Row | DC50 [nM] | Emax [%] | SMILES
10 | 22 | 33 | Nc1nnc(-c2ccccc2O)cc1N1CCC(C(=O)N2CC3(CCN(C(=O)C4CCN(c5ccc6c(c5)C(=O)N(C5CCC(=O)NC5=O)C6=O)CC4)CC3)C2)(c2ccccc2)CC1 (centres unmarked) [Example 163, 5-(4-(2-(1-(3-amino-6-(2-hydroxyphenyl)pyridazin-4-yl)-4-phenylpiperidine-4-carbonyl)-2,7-diazaspiro[3.5]nonane-7-carbonyl)piperidin-1-yl)-2-(2,6-dioxopiperidin-3-yl)isoindoline-1,3-dione]
11 | 31 | 28 | Nc1nnc(-c2ccccc2O)cc1N1CCC(C(=O)N2CCN(C(=O)C3CCN(c4ccc5c(c4)C(=O)N(C4CCC(=O)NC4=O)C5=O)CC3)CC2)(c2ccccc2)CC1 (centres unmarked) [Example 120, 5-(4-(4-(1-(3-amino-6-(2-hydroxyphenyl)pyridazin-4-yl)-4-phenylpiperidine-4-carbonyl)piperazine-1-carbonyl)piperidin-1-yl)-2-(2,6-dioxopiperidin-3-yl)isoindoline-1,3-dione]
12 | 110 | 72 | Nc1nnc(-c2ccccc2O)cc1N1CCC(C(=O)N2CCC3(CC2)CN(C(=O)CN2CCN(c4ccc(NC5CCC(=O)NC5=O)cc4)CC2)CCO3)(c2ccccc2)CC1 (centres unmarked) [Example 173, 3-((4-(4-(2-(9-(1-(3-amino-6-(2-hydroxyphenyl)pyridazin-4-yl)-4-phenylpiperidine-4-carbonyl)-1-oxa-4,9-diazaspiro[5.5]undecan-4-yl)-2-oxoethyl)piperazin-1-yl)phenyl)amino)piperidine-2,6-dione]
13 | 111 | 60 | Nc1nnc(-c2ccccc2O)cc1N1CCC(C(=O)N2CCC3(CC2)CN(C(=O)CC2CCN(c4ccc5c(c4)C(=O)N(C4CCC(=O)NC4=O)C5=O)CC2)CCO3)(c2ccccc2)CC1 (centres unmarked) [Example 168, 5-(4-(2-(9-(1-(3-amino-6-(2-hydroxyphenyl)pyridazin-4-yl)-4-phenylpiperidine-4-carbonyl)-1-oxa-4,9-diazaspiro[5.5]undecan-4-yl)-2-oxoethyl)piperidin-1-yl)-2-(2,6-dioxopiperidin-3-yl)isoindoline-1,3-dione]
14 | 42 | 50 | Nc1nnc(-c2ccccc2O)cc1N1CCC(C(=O)N2CC3(CCN(C(=O)CC4CCN(c5ccc6c(c5)C(=O)N(C5CCC(=O)NC5=O)C6=O)CC4)CC3)C2)(c2ccccc2)CC1 (centres unmarked) [Example 164, 5-(4-(2-(2-(1-(3-amino-6-(2-hydroxyphenyl)pyridazin-4-yl)-4-phenylpiperidine-4-carbonyl)-2,7-diazaspiro[3.5]nonan-7-yl)-2-oxoethyl)piperidin-1-yl)-2-(2,6-dioxopiperidin-3-yl)isoindoline-1,3-dione]
15 | 107 | 62 | CC(Oc1cccc2c1C(=O)N(C1CCC(=O)NC1=O)C2=O)c1cn(C2CN(C(=O)CCCCN3CCN(c4ccc(N5CCC[C@H](Oc6cc(-c7ccccc7O)nnc6N)C5)cc4)CC3)C2)nn1 (mixture of isomers) [Example 199, 2-(2,6-dioxo-3-piperidyl)-4-[1-[1-[1-[5-[4-[4-[rac-(3S)-3-[3-amino-6-(2-hydroxyphenyl)pyridazin-4-yl]oxy-1-piperidyl]phenyl]piperazin-1-yl]pentanoyl]azetidin-3-yl]triazol-4-yl]ethoxy]isoindoline-1,3-dione]
16 | 133 | 44 | Nc1nnc(-c2ccccc2O)cc1N1CC(Oc2ccc(C(=O)N3CCN(C(=O)C4CCN(c5ccc6c(c5)C(=O)N(C5CCC(=O)NC5=O)C6=O)CC4)CC3)c(C(F)(F)F)c2)C1 (racemic) [Example 132, rac-5-[4-[4-[4-[1-[3-amino-6-(2-hydroxyphenyl)pyridazin-4-yl]azetidin-3-yl]oxy-2-(trifluoromethyl)benzoyl]piperazine-1-carbonyl]-1-piperidyl]-2-(2,6-dioxo-3-piperidyl)isoindoline-1,3-dione]
17 | 299 | 57 | Nc1nnc(-c2ccccc2O)cc1N1CCC(C(=O)N2CC3(CCN(C(=O)COc4ccc5c(c4)C(=O)N(C4CCC(=O)NC4=O)C5=O)CC3)C2)(c2ccccc2)CC1 (centres unmarked) [Example 162, 5-(2-(2-(1-(3-amino-6-(2-hydroxyphenyl)pyridazin-4-yl)-4-phenylpiperidine-4-carbonyl)-2,7-diazaspiro[3.5]nonan-7-yl)-2-oxoethoxy)-2-(2,6-dioxopiperidin-3-yl)isoindoline-1,3-dione]
18 | 928 | 69 | Nc1nnc(-c2ccccc2O)cc1N1CC(Oc2cccc(C(=O)N3CCN(C(=O)CCCCCCNc4cccc5c4C(=O)N(C4CCC(=O)NC4=O)C5=O)CC3)c2)C1 (centres unmarked) [Example 145, 4-[[7-[4-[3-[1-[3-amino-6-(2-hydroxyphenyl)pyridazin-4-yl]azetidin-3-yl]oxybenzoyl]piperazin-1-yl]-7-oxo-heptyl]amino]-2-(2,6-dioxo-3-piperidyl)isoindoline-1,3-dione]
19 | 73 | 26 | CC(Oc1cccc2c1C(=O)N(C1CCC(=O)NC1=O)C2=O)c1cn(CCCCCCCCCN2CCN(c3ccc(N4CCC[C@H](Oc5cc(-c6ccccc6O)nnc5N)C4)cc3)CC2)nn1 (mixture of isomers) [Example 126, 2-(2,6-dioxo-3-piperidyl)-4-[1-[1-[9-[4-[4-[rac-(3S)-3-[3-amino-6-(2-hydroxyphenyl)pyridazin-4-yl]oxy-1-piperidyl]phenyl]piperazin-1-yl]nonyl]triazol-4-yl]ethoxy]isoindoline-1,3-dione]
